Laboratory results: patent publication US20110117164A1, “Use of Additive Sites to Control Nitric Oxide Release from Nitric Oxide Donors Contained within Polymers” (priority 2004, published 2011)

Assays:
[1] = Storage stability of polymer films containing diazeniumdiolate (NO release after storage); format: physicochemical; settings: 4 weeks
Method: To determine if polymer films containing such diazeniumdiolates would also remain stable, NO release measurements were conducted for films containing 29 wt. % PVC, 60 wt. % plasticizer (DOS), 4.4 wt. % compound 2d and 6.6 wt. % KTpClPB under two storage conditions: a) room temperature under nitrogen and b) ambient conditions. Initial NO release measurements were performed for freshly prepared films. Additional NO release measurements were conducted for both storage conditions after 1, 2 and 4 weeks. […] The loss of NO may be due in part to the slow decomposition of the diazeniumdiolate within the polymer matrix owing to permeation of water vapor into the polymer film. Although this loss represents a significant percentage of the total NO releasing capability of the film, such films still yield NO surface fluxes higher than that of stimulated endothelial cells (i.e., 4·10^−10 mol·cm^−2·min^−1). However, films stored under a dry nitrogen environment at room temperature maintained 99% of their NO release after a 4-week period.

[2] = Thermal gravimetric analysis under nitrogen (thermal stability of diazeniumdiolates); format: physicochemical; settings: nitrogen atmosphere
[3] = NO release from polymer films/coatings containing NO donor in PBS buffer at 37° C. by chemiluminescence; format: physicochemical
Method: Thermal stability of diazeniumdiolates. […] Kinetics. […] Use in Hydrophobic Systems.
In the absence of the KTpClPB, NO release decreases dramatically after approximately 1 hour. […] The decrease in NO release observed is believed to result from an increase in the pH within the organic polymer film, which decreases the decomposition rate of lipophilic diazeniumdiolates. As water diffuses into the film initiating NO release, secondary amine sites result. The secondary amine sites have a higher pKa than water and therefore deprotonate water to form hydroxide ions. The basic microdomain environment that results within the polymer, in turn, slows further decomposition of the remaining diazeniumdiolates that would generate NO. This retardation may occur as a result of the organic ammonium hydroxide microphases within the polymer, which in turn serves to stabilize the remaining diazeniumdiolates.
FT-IR were collected on Perken Elmer Spectrum VX. […] Elemental analyses were performed. Reagents. […] NO was purchased from Matheson Gases. […] General NO Addition Procedure. […] The products were finally collected and dried under vacuum. Molar Extinction Coefficients. […] The maximum wavelength and absorbance were collected. […] Kinetics Studies. […] The NO released was measured using chemiluminescence. […] Preparation of Polymer Films Containing Diazeniumdiolates. […] The membranes were covered and allowed to cure overnight. […] Polymerization to Form Boc-protected Diamine Copolymer.
General Procedure for Deprotection to Form Diamine Copolymer (c). 35 mg of the copolymer (b) was dissolved in 2 mL of dichloromethane and then 200 μL of TFA (trifluoroacetic acid) was added dropwise. The solution was stirred at room temperature for about 3 hours. The reaction mixture was diluted with 20 mL of dichloromethane, and the organic phase was then washed with sodium bicarbonate, water, and brine, and was dried with sodium sulfate. The solvent was evaporated and the resulting copolymer was dried under vacuum overnight. ^1H-NMR was performed to confirm the structure and actual composition of the copolymer. General Procedure for NO Loading to Form Polymer-Based NO Donor (d). 20 mg of the deprotected copolymer (c) was dissolved in 3 mL of dry THF and placed in a high pressure reactor with a stirring bar, and flushed with argon for about 10 minutes. 100% excess of sodium methoxide (with respect to free amine sites) was added and the reactor was closed. The reactor was purged with argon again for several times (e.g. ten times) over a 1 hour period and was charged with NO at 80 psi. The reaction mixture was stirred for 72 hours at room temperature. After the reaction was complete, the copolymer was precipitated with dry hexane under argon. The remaining solvent was removed using a vacuum, and the diazeniumdiolated copolymers (d) were examined by UV-Vis spectrum as well as NOA. This resulting copolymer was stored in sealed vials charged with argon in a freezer. Preparation of Polymer Films Containing Polymer-Based No Donor. Polymer membranes containing the polymer-based NO donor was prepared by dissolving 60.8 mg poly(vinyl chloride) (PVC), 30.4 mg dioctyl sebacate (DOS), and 9.1 mg poly(lactide-co-glycolide) (50:50) (PLGA 50:50) in 1.5 mL of freshly distilled tetrahydrofuran. […] A trilayer film configuration is employed to fabricate films. […] Four hours later the polymer cocktail was cast on top of the PVC layer. After another 4 hours, the PVC solution was cast again as a finish layer. The membrane was covered and allowed to cure overnight. Polymer films containing no additives were prepared in a similar manner. […] NO Release Measurements by Chemiluminescence. All NO measurements were performed using a Sievers Nitric Oxide Analyzer (NOA), model 280. The instrument was calibrated before each experiment using an internal two-point calibration (zero gas and 45 PPM). The flow rate was set to 200 mL/min with a cell pressure of 5.4 torr and an oxygen pressure of 6.0 psig. […]

SMILES: CCCCNCCCCCCN(CCCC)/[N+]([O-])=N/O [Compound 2d, (Z)-1-{N-Butyl-N-[6-(N-butylammoniohexyl)amino]}-diazen-1-ium-1,2-diolate]
- theoretical total NO release achieved after storage ([1]; film 29 wt. % PVC, 60 wt. % DOS, 4.4 wt. % donor, 6.6 wt. % KTpClPB, ambient conditions): 62%
- NO surface flux of films after ambient storage (vs stimulated endothelial cells) ([1]; films stored under ambient conditions): > 4·10^−10 mol·cm^−2·min^−1
- NO release maintained after storage ([1]; same film, dry nitrogen environment at room temperature): 99%
- TNO loss (stable up to) [2]: 104 °C
- t1/2 ("apparent" t1/2 and t1/2) (buffer, pH 7.4): 4.95 ± 0.567 min
- k (first order decomposition, PBS buffer, pH 7.4, 37° C., n > 3): 0.0025 ± 0.0002 s⁻¹
- effect of doubling the NO donor amount ([3]; 4 wt. % vs 8 wt. % in 1:2 PVC/DOS film with KTpClPB): nearly doubles the surface flux and the NO release
- effect of plasticizer on NO release ([3]; PVC/NPOE matrix compared with PVC/DOS matrix, with KTpClPB): higher initial NO release
- effect of increasing polymer to plasticizer ratio on NO release ([3]; PVC:DOS increased from 1:2 to 2:1, films with KTpClPB): the NO release rate decreases and the release is prolonged
- period of steady NO release ([3]; SR tubes coated with plasticized SR, 4.2 wt. % donor, 8.1 wt. % KTpClPB, PBS buffer at 37° C.): 40 h
- total estimated NO released from the surface of the tube ([3]; SR tubes coated with plasticized SR, 4.2 wt. % donor, 8.1 wt. % KTpClPB, after 40 h in PBS buffer at 37° C.): 15%
- time after which NO release decreases dramatically ([3]; plasticized PVC film, absence of KTpClPB): approximately 1 hour
- effect of adding KTpClPB on NO release ([3]; plasticized PVC films, 1:1 mol ratio KTpClPB:donor, PBS pH 7.4, 37° C.): increases, prolongs, and helps to control the release of NO
- total NO release profile from film without additive ([3]; ~5 wt. % in PVC film plasticized with DOS (1:2), PBS buffer, 37° C., no KTpClPB): never achieving theoretical total NO release
